Test results taken from patent US20230172874A1, “USE OF CANNABIDIOL FOR THE TREATMENT OF INSOMNIA ASSOCIATED TO PAIN” (priority 2021, published 2023).
Entries after “also recorded” stand apart in the source; their conditions may differ.

Columns and labels:
neuropathic rats [1] = experiment: EEG/EMG recording of wakefulness, NREM and REM sleep in neuropathic rats; assay type: in vivo, male Wistar rats; conditions: for REM sleep (total time), relative to NP rats treated with vehicle / total NREM sleep, relative to NP rats treated with vehicle / total time of wakefulness, relative to NP rats treated with vehicle: WAY 100635 2 mg/kg; for block of the hypnotic effects of CBD (20 mg/kg): WAY 100635 2 mg/kg i.p. 10 min before CBD
Procedure: Animals. The experiments were performed on male Wistar rats weighing 250 g (six weeks). All animals were housed in standardized animal facilities under a 12 h light/dark cycle (lights on at 7 AM) with ad libitum access to food and water. All surgeries and experimental procedures were performed during the light cycle. Experimental protocols were approved by the Animal Ethics Committee of the local institutional committee for animal use and care (McGill University, Qc, Canada). These protocols follow ethical guidelines for investigation of experimental pain in conscious animals of the IASP, the Canadian Institute of Health Research guidelines for animal care and scientific use.
Spared nerve injury (SNI). SNI was performed according to the method of Decosterd and Woolf^35. Rats were deeply anaesthetized with isofluorane (5%), anaesthesia was confirmed by the absence of a nociceptive reflex reaction to a paw pinch. The sciatic nerve was exposed at mid-thigh level distal to the trifurcation and freed of connective tissue; the three peripheral branches (sural, common peroneal, and tibial nerves) of the sciatic nerve were exposed without stretching nerve structures. Both tibial and common peroneal nerves were ligated and transected together. Carprofen (5 mg/kg) was administrated subcutaneously pre-surgery as well as three days every 24 hours post-surgery as analgesic. After SNI, each rat was housed in its home cage for 15 days until the neuropathy is developed.
EEG/EMG Implantation. Neuropathic rats (10 days after surgery) and naïve rats were placed in a stereotaxic frame following isoflurane-induced anesthesia (5%). Anaesthesia was confirmed by the absence of a nociceptive reflex reaction to a paw pinch. For EEG monitoring, three stainless-steel epidural electrodes were positioned through 1.5 mm burr holes: one over the parietal cortex on each side, and the third (as a reference) in the right prefrontal cortex. In rats, their respective locations relative to bregma were −2 mm anteroposterior (AP) and −3 mm lateral (L), −7 mm AP and −3 mm L, and −4.5 mm AP and +3 mm L, according to Paxinos and Watson. For EMG monitoring, three flexible stainless-steel wire electrodes, silicon insulation removed at the terminal 3-4 mm, were implanted into the neck muscles (two bilaterally and one in the middle). Wires were fused with the electrodes and the connectors were fixed to the skull with dental acrylic (Coltene/Whaledent). Carprofen (10mg/kg) was administrated subcutaneously pre-surgery as well as three days every 24 hours post-surgically as analgesic. Each rat was single-caged post-surgery and allowed to recover for the next 5 days^13. 24 hours after surgery, the rats were placed in the recording chamber and connected to a flexible 6-flat wire (3M Scotchflex™) in a freely moving manner for several hours during the subsequent 5 days. No recordings were performed, but tolerance to the cable and sleep behavior were observed. All rats from a home cage were also grouped for one hour each day for socialization to circumvent anxious-depressive-like behavior induced by social isolation^13.
Study design for EEG and EMG assessment. […] […] In another cohort of rats rimonabant (1 mg/kg) was also injected i.p. at 6 A.M. in neuropathic rats.
(§1) EEG and EMG recording. Six days after surgery (16 days post-SNI), mechanical allodynia was assessed via von Frey test, and EEG/EMG was recorded for a period of 6 h (from 6 AM to 12 PM). The treatments (described below) were performed at 6:00 A.M., right after the recording had started. […] Consecutive 10 s epochs were subjected to a fast Fourier transform (FFT), and EEG power spectra density was computed in the frequency range of 0-64 Hz^13.
Analysis of EEG and EMG data. The three classical vigilance states as described in the rat were discriminated on the basis of the cortical EEG and neck EMG activities. […]

rats = conditions: rat, in vivo; cited from earlier work
neuropathic rats [2] = experiment: EEG power spectra (delta, theta, sigma bands) during NREM and REM sleep; assay type: in vivo, male Wistar rats
Procedure: as §1
To determine the variations in power spectra induced by the pharmacological treatment of CBD and antagonists, the power densities were summed up over the frequency band of 0-25 Hz (total power). The data were then standardized by expressing all power spectral densities at the different 0.5 Hz bin frequency ranges (delta, theta, and sigma) as a percentage relative to the total power of the same epoch^16. Frequency ranges were 0-3.5Hz for delta, 4-8.5Hz for theta, and 11-14 Hz for sigma bands. The sum of power densities over a frequency band following treatments were expressed as the percentage difference from that in or naïve+veh or NP+vehicle group in statistical analysis. In the experiments with WAY 100635 the NP+CBD was compared with NP+vehicle, NP+WAY, NP+WAY+CBD.
To assess whether CBD (20 mg/kg) might affect the microarchitecture during the sleep, the intensity Delta (0.5-4 Hz), Theta ([…]) and Sigma (10-15 Hz) waves were measured during 6 hours of light phase in the 3 groups of rats (Naïve, SNI+VEH and SNI+CBD 20mg/kg). Data were converted as a percentage of variation vs. naive animals and One-way ANOVA was performed on the power of delta, theta and sigma waves during NREM and REN sleep.
To assess whether the 5-HT1A selective antagonist WAY 100635 (2 mg/kg) might reverse the effect of CBD (20 mg/kg) in the enhancement of power density (Delta, Theta, and Sigma waves) during sleep, the power spectra were measured for 6 hours in four groups of rats. The first group were NP rats treated with CBD vehicle (n=8), the second group were NP rats treated with WAY 100635 alone at 2 mg/kg (n=6), the third group were NP rats treated with WAY 100635 (2 mg/kg)+CBD (20 mg/kg; n=6), and the fourth group were NP treated with CBD at 20 mg/kg (n=8). Data were converted as a percentage of variation vs NP animals treated with vehicle.

[3] = 6 h EEG/EMG, i.p., CBD 20 mg/kg, rimonabant 1 mg/kg
[4] = NP rats, 6 h EEG/EMG, i.p., CBD 20 mg/kg, rimonabant 1 mg/kg
[5] = 6 h EEG/EMG, i.p., CBD 20 mg/kg
[6] = 6 h EEG/EMG, i.p., CBD 20 mg/kg, listed as WAY

## Cc1c(C(=O)NN2CCCCC2)nn(-c2ccc(Cl)cc2Cl)c1-c1ccc(Cl)cc1 [Rimonabant]
Neuropathic rats [1]; [3]
  REM sleep (total time), relative to NP rats treated with vehicle: Decrease the Time Spent in REM; also recorded: difference
Neuropathic rats [1]; 6 h EEG/EMG, i.p., CBD 20 mg/kg, rimonabant 1 mg/kg, listed as rimonabant
  REM sleep (total time), relative to NP rats treated with vehicle: reduction of REM sleep time; also recorded: decreases REM sleep
Neuropathic rats [1]; [4]
  REM sleep, relative to naïve animals treated with vehicle: difference
  wakefulness, relative to naïve animals treated with vehicle: difference
Neuropathic rats [1]; NP rats, i.p., CBD 20 mg/kg, rimonabant 1 mg/kg
  reversal of sleep perturbations induced by neuropathic pain (sleep-wake cycle): Does not Reverse the Sleep Perturbations
rats
  time spent in NREM sleep: reducing the time spent in NREM sleep and REM sleep
  time spent in REM sleep: reducing the time spent in NREM sleep and REM sleep
  time spent in wakefulness: dose-dependently increased the time spent in wakefulness

## COc1ccccc1N1CCN(CCN(C(=O)C2CCCCC2)c2ccccn2)CC1 [WAY 100635]
Neuropathic rats [1]; 6 h EEG/EMG, WAY 100635 alone i.p.
  REM sleep, compared to NP rats treated with CBD 20 mg/kg: decrease in REM sleep
Neuropathic rats [1]; [5]
  total NREM sleep, relative to NP rats treated with vehicle: statistically reduced the time spent NREM sleep
  total time of wakefulness, relative to NP rats treated with vehicle: increase in wakefulness
Neuropathic rats [1]; [6]
  total NREM sleep, relative to NP rats treated with vehicle: impaired NREM sleep
  total time of wakefulness, relative to NP rats treated with vehicle: increased wakefulness
Neuropathic rats [1]; [3]
  REM sleep (total time), relative to NP rats treated with vehicle: no statistical difference was detected
Neuropathic rats [1]; 6 h EEG/EMG, i.p., WAY 100635 2 mg/kg alone or 10 min before CBD 20 mg/kg
  total time of wakefulness, relative to NP rats treated with CBD 20 mg/kg: increase in wakefulness
Neuropathic rats [1]; NP rats, 6 h EEG/EMG, WAY 100635 (1 mg/kg) as printed, before CBD, p<0.001
  block of the positive effect of CBD (20 mg/kg) on REM sleep: able to block the positive effect of CBD
Neuropathic rats [1]; NP rats
  block of the hypnotic effects of CBD (20 mg/kg): fully prevented
Neuropathic rats [1]; NP rats, listed as WAY100635
  block of the hypnotic effects of CBD (20 mg/kg): Blocks the Hypnotic Effects of CBD
Neuropathic rats [2]; NP rats, 6 h, CBD 20 mg/kg, WAY 100635 2 mg/kg
  power of Delta waves during REM sleep, between groups (ANOVA): no statistically significant differences between groups
Neuropathic rats [2]; NP rats, WAY 100635 2 mg/kg, p<0.0003
  block of the theta power increase induced by CBD (20 mg/kg) on NREM sleep: able to block the theta power increase induced by CBD
Neuropathic rats [2]; NP rats, WAY 100635 2 mg/kg, p<0.0019
  block of the effects of CBD (20 mg/kg) on Sigma power during REM sleep: blocks the effects of CBD
Neuropathic rats [2]; NP rats, WAY 100635 2 mg/kg, p<0.0048
  block of the Delta power increase induced by CBD (20 mg/kg) on NREM sleep: able to block the Delta power increase induced by CBD
Neuropathic rats [2]; NP rats, WAY 100635 2 mg/kg, p<0.0061
  block of the positive effect of CBD (20 mg/kg) on theta waves during REM sleep: able to block the positive effect of CBD
Neuropathic rats [2]; WAY 100635 2 mg/kg alone (p<0.038) or WAY 100635+CBD (p<0.0006)
  intensity of Sigma waves during NREM sleep, relative to NP animals administered CBD 20 mg/kg: differences were detected
